Patent US9982005B2, “Macrolides and methods of their preparation and use” (President and Fellows of Harvard College, priority 2013, dated 2018)
≈ marks a conversion by molar mass, not a printed value. Like-named read-outs stand apart in the source and are kept apart here.

Columns and labels:
Assay type in all cases: cell-based
[1] = system: SA101 S. aureus ATCC29213; experiment: broth dilution MIC, S. aureus SA101
Excerpt: (§1) We have collected MIC data for a total of 50 novel macrolides that this platform has produced against over 21 unique strains of B. subtilis, E. coli, S. aureus, S. pneumoniae, and H. influenzae, including several multidrug-resistant strains, with a special focus on macrolide resistant mechanisms (vide supra). Azithromycin was included as a control macrolide. CLSI standard procedures for broth dilution MIC determination were used. […] These genotypes can be constitutive or inducible. The finding that C4-epi (unnatural) isomers of the “azaketolide” macrolide class have enhanced activities relative to C4 natural isomers is very exciting.

EC107 E. coli ATCC25922 = experiment: broth dilution MIC, E. coli EC107
Excerpt: as §1

EC878 E. coli tolC = experiment: broth dilution MIC, E. coli EC878
Excerpt: as §1

EC882 E. coli imp = experiment: broth dilution MIC, E. coli EC882
Excerpt: as §1

[2] = system: BS1723 B. subtilis BS168 WT wild type; experiment: broth dilution MIC, B. subtilis BS1723
Excerpt: as §1

BS1725 B. subtilis ermC = experiment: broth dilution MIC, B. subtilis BS1725
Excerpt: as §1

E. coli strains = experiment: MIC against E. coli strains (Table M7); conditions: Escherichia coli, ATCC25922, E. coli ATCC 25922
Outline: (§2)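 Standard CLSI broth dilution method used for MIC determination. Control: azithromycin.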

S. aureus strains = experiment: MIC against S. aureus strains (Table M7); conditions: for MIC: Staphylococcus aureus
Outline: as §2

S. pneumoniae strains = experiment: MIC against S. pneumoniae strains (Tables M7, M8); conditions: Streptococcus pneumoniae
Excerpt: CLSI standard procedures for broth dilution MIC determination were used. […] These genotypes can be constitutive or inducible.

E. faecalis strains = experiment: MIC against E. faecalis strains (Table M8); conditions: Enterococcus faecalis, E. faecalis 29212
A. baumannii strains = experiment: MIC against A. baumannii strains (Table M8); conditions: for MIC: Acinetobacter baumannii, BAA747, A. baumannii BAA747-1
K. pneumoniae strains = experiment: MIC against K. pneumoniae strains (Table M8); conditions: Klebsiella pneumoniae, K. pneumoniae 10031
H. influenzae strains = experiment: MIC against H. influenzae strains (Table M8); conditions: Haemophilus influenzae
Outline: as §2

[3] = Staphylococcus aureus, ATCC29213, SA101 S. aureus ATCC29213, read-out: MIC
[4] = Escherichia coli, read-out: MIC
[5] = Bacillus subtilis, BS1725 B. subtilis ermC (+ery)
[6] = Bacillus subtilis, BS1725 B. subtilis ermC (−ery)
[7] = ATCC29213, S. aureus ATCC 29213, read-out: MIC S. aureus (ATCC 29213)
[8] = S. aureus 506, read-out: MIC S. aureus (506)
[9] = S. aureus 1708, read-out: MIC S. aureus (1708)
[10] = USA300, S. aureus USA300, read-out: MIC S. aureus (USA300)
[11] = S. pneumoniae 160, read-out: MIC S. pneumonae (160)
[12] = S. pneumoniae 1509, read-out: MIC S. pneumoniae (1509)
[13] = S. pneumoniae 1533, read-out: MIC S. pneumoniae (1533)
[14] = S. pneumoniae 1537, read-out: MIC S. pneumoniae (1537)
[15] = S. pneumoniae 49619, read-out: MIC S. pneumoniae (49619)
[16] = H. influenzae 49247, read-out: MIC H. influenzae (49247)
[17] = H. influenzae 49766, read-out: MIC H. influenzae (49766)
[18] = Bacillus subtilis, BS1723 B. subtilis BS168 WT wild type, read-out: MIC

Row | Compound | MIC [1, 3] [µg/mL] | MIC (EC107 E. coli ATCC25922; [4]) [µg/mL] | MIC (EC878 E. coli tolC; Escherichia coli) [µg/mL] | MIC (EC882 E. coli imp; Escherichia coli) [µg/mL] | MIC (BS1725 B. subtilis ermC; [5]) [µg/mL] | MIC (E. coli strains) [µg/mL] | MIC (S. aureus strains; [7]) [µg/mL] | MIC (S. aureus strains; [8]) [µg/mL] | MIC (S. aureus strains; [9]) [µg/mL] | MIC (S. aureus strains; [10]) [µg/mL] | MIC (S. pneumoniae strains; [11]) [µg/mL] | MIC (S. pneumoniae strains; [12]) [µg/mL] | MIC (S. pneumoniae strains; [13]) [µg/mL] | MIC (S. pneumoniae strains; [14]) [µg/mL] | MIC (S. pneumoniae strains; [15]) [µg/mL] | MIC (E. faecalis strains) [µg/mL] | MIC (A. baumannii strains) [µg/mL] | MIC (K. pneumoniae strains) [µg/mL] | MIC (H. influenzae strains; [16]) [µg/mL] | MIC (H. influenzae strains; [17]) [µg/mL] | further results
1 | CC[C@H]1OC(=O)[C@H](C)[C@@H](O[C@H]2C[C@@](C)(OC)[C@@H](O)[C@H](C)O2)[C@H](C)[C@@H](O[C@@H]2O[C@H](C)C[C@H](N(C)C)[C@H]2O)[C@](C)(O)C[C@@H](C)C(=O)[C@H](C)[C@@H](O)[C@]1(C)O [Erythromycin, erythromycin, reference compound] | 0.5 (≈ 0.681 µM) | > 32 | 2 (≈ 2.73 µM) | 2 (≈ 2.73 µM) | > 32 | > 32 | 0.5 (≈ 0.681 µM) | > 32 | > 32 | > 32 | 2 (≈ 2.73 µM) | > 32 | > 32 | > 32 | ≤ 0.0625 | 2 (≈ 2.73 µM) | 32 (≈ 43.6 µM) | 8 (≈ 10.9 µM) | 2 (≈ 2.73 µM) | 8 (≈ 10.9 µM) | MIC ([2]; Bacillus subtilis): 0.125 µg/mL (≈ 0.17 µM); MIC (BS1725 B. subtilis ermC; [6]): > 32 µg/mL; MIC S. aureus (ATCC 29213) (S. aureus strains; S. aureus ATCC 29213): 0.25 µg/mL (≈ 0.341 µM); MIC (S. aureus strains; S. aureus 183, read-out: MIC S. aureus (183)): > 32 µg/mL; MIC A. baumannii (BAA747-1) (A. baumannii strains; A. baumannii BAA747-1): >32 µg/mL
2 | CC[C@H]1OC(=O)[C@H](C)C(=O)C[C@@H](O[C@@H]2OC(C)CC(N(C)C)C2O)[C@](C)(OC)C[C@@H](C)CN[C@H](C)[C@H]2N(CCCCn3cc(-c4cccc(N)c4)nn3)C(=O)O[C@]12C (some centres unmarked) [FSM-10781] | > 32 | 16 (≈ 19.7 µM) | 1 (≈ 1.23 µM) | 0.25 (≈ 0.307 µM) | > 32 | 32 (≈ 39.3 µM) | > 32 | > 32 | > 32 | > 32 | 2 (≈ 2.46 µM) | > 32 | > 32 | > 32 | 8 (≈ 9.83 µM) | 8 (≈ 9.83 µM) | 32 (≈ 39.3 µM) | 8 (≈ 9.83 µM) | 1 (≈ 1.23 µM) | 8 (≈ 9.83 µM) | MIC [2, 18]: > 32 µg/mL; MIC (BS1725 B. subtilis ermC; [6]): > 32 µg/mL
3 | CC[C@H]1OC(=O)[C@H](C)C(=O)[C@H](C)[C@@H](O[C@@H]2OC(C)CC(N(C)C)C2O)[C@](C)(OC)C[C@@H](C)CN[C@H](C)[C@H]2N(CCCCn3cc(-c4nccs4)nn3)C(=O)O[C@]12C (some centres unmarked) [FSM-20708] | 2 (≈ 2.44 µM) | 8 (≈ 9.76 µM) | 1 (≈ 1.22 µM) | 0.0625 (≈ 0.0762 µM) | 16 (≈ 19.5 µM) | 4 (≈ 4.88 µM) | 2 (≈ 2.44 µM) | > 32 | 2 (≈ 2.44 µM) | 2 (≈ 2.44 µM) | 0.125 (≈ 0.152 µM) | 4 (≈ 4.88 µM) | > 32 | > 32 | 0.5 (≈ 0.61 µM) | 0.5 (≈ 0.61 µM) | 16 (≈ 19.5 µM) | 2 (≈ 2.44 µM) | 0.25 (≈ 0.305 µM) | 2 (≈ 2.44 µM) | MIC [2, 18]: 1 µg/mL (≈ 1.22 µM)
4 | CC[C@H]1OC(=O)[C@H](C)C(=O)[C@H](C)[C@@H](O[C@@H]2OC(C)CC(N(C)C)C2O)[C@](C)(OC)C[C@@H](C)CN[C@H](C)[C@H]2N(CCCCn3cc(-c4cccnn4)nn3)C(=O)O[C@]12C (some centres unmarked) [FSM-20710] | 2 (≈ 2.45 µM) | 8 (≈ 9.82 µM) | 1 (≈ 1.23 µM) | 0.0625 (≈ 0.0767 µM) | 32 (≈ 39.3 µM) | 8 (≈ 9.82 µM) | 2 (≈ 2.45 µM) | > 32 | 2 (≈ 2.45 µM) | 4 (≈ 4.91 µM) | 0.5 (≈ 0.613 µM) | 16 (≈ 19.6 µM) | > 32 | > 32 | 0.5 (≈ 0.613 µM) | 0.5 (≈ 0.613 µM) | 16 (≈ 19.6 µM) | 4 (≈ 4.91 µM) | 0.5 (≈ 0.613 µM) | 2 (≈ 2.45 µM) | MIC [2, 18]: 2 µg/mL (≈ 2.45 µM)
5 | CC[C@H]1OC(=O)[C@H](C)C(=O)[C@H](C)[C@@H](O[C@@H]2OC(C)CC(N(C)C)C2O)[C@](C)(OC)C[C@@H](C)CN[C@H](C)[C@H]2N(CCCCn3cc(-c4nc5ccccc5s4)nn3)C(=O)O[C@]12C (some centres unmarked) [FSM-20711] | 2 (≈ 2.3 µM) | 16 (≈ 18.4 µM) | 0.5 (≈ 0.575 µM) | 0.0312 (≈ 0.0359 µM) | 32 (≈ 36.8 µM) | 16 (≈ 18.4 µM) | 4 (≈ 4.6 µM) | > 32 | 4 (≈ 4.6 µM) | 4 (≈ 4.6 µM) | 0.125 (≈ 0.144 µM) | > 32 | > 32 | > 32 | 0.5 (≈ 0.575 µM) | 1 (≈ 1.15 µM) | > 32 | 4 (≈ 4.6 µM) | 1 (≈ 1.15 µM) | 8 (≈ 9.19 µM) | MIC [2, 18]: 2 µg/mL (≈ 2.3 µM)
6 | CC[C@H]1OC(=O)[C@H](C)C(=O)[C@H](C)[C@@H](O[C@@H]2OC(C)CC(N(C)C)C2O)[C@](C)(OC)C[C@@H](C)CN(C(C)=O)[C@H](C)[C@H]2N(CCCCn3cc(-c4cccc(N)c4)nn3)C(=O)O[C@]12C (some centres unmarked) [FSM-20767] | 16 (≈ 18.4 µM) | > 32 | 4 (≈ 4.6 µM) | 1 (≈ 1.15 µM) | > 32 | > 32 | 16 (≈ 18.4 µM) | > 32 | 32 (≈ 36.8 µM) | 32 (≈ 36.8 µM) | 2 (≈ 2.3 µM) | > 32 | > 32 | > 32 | 0.5 (≈ 0.575 µM) | 4 (≈ 4.6 µM) | > 32 | 32 (≈ 36.8 µM) | 8 (≈ 9.19 µM) | 16 (≈ 18.4 µM) | MIC [2, 18]: 16 µg/mL (≈ 18.4 µM); MIC (BS1725 B. subtilis ermC; [6]): 8 µg/mL (≈ 9.19 µM)
7 | CC[C@H]1OC(=O)[C@H](C)C(=O)C[C@@H](O[C@@H]2OC(C)CC(N(C)C)C2O)[C@@](C)(OC)C[C@@H](C)CN[C@H](C)[C@H]2N(CCCCn3cc(-c4ccccn4)nn3)C(=O)O[C@]12C (some centres unmarked) [FSM-30517] | > 32 | > 32 | > 32 | > 32 | > 32 |  |  |  |  |  |  |  |  |  |  |  |  |  |  |  | MIC [2, 18]: > 32 µg/mL; MIC (BS1725 B. subtilis ermC; [6]): > 32 µg/mL
8 | spiramycin [reference compound] |  |  |  |  |  |  |  |  |  |  |  |  |  |  |  |  |  |  |  |  | MIC ([1]; SA101 S. aureus ATCC29213): 8 µg/mL; MIC (EC107 E. coli ATCC25922): >32 µg/mL; MIC (EC878 E. coli tolC): 16 µg/mL; MIC (EC882 E. coli imp): 1 µg/mL; MIC ([2]; BS1723 B. subtilis BS168 WT wild type): 2 µg/mL; MIC (BS1725 B. subtilis ermC; BS1725 B. subtilis ermC (+ery)): 16 µg/mL; MIC (BS1725 B. subtilis ermC; BS1725 B. subtilis ermC (−ery)): 2 µg/mL
